Test results from US20060287383A1, “Substance exhibiting antidepressant property” (priority 2003, published 2006).

What was measured:
Type in all cases: in vivo
white outbred male rats [1] = assay: Porsolt method of behavioral despair (helplessness); settings: for Time of immobility: 10 minutes observation
Source text: The Porsolt method of behavioral despair (helplessness) (Porsolt R. D., Anton G., Blavet N. et al. Behavioral despair in rats: a new model sensitive to antidepressant treatment//Europ. J. Pharmacol. 1978—v. 47.—p. 379-391) is the basic model for assessing antidepressants (Andreeva N. I., ? H. ? . the Methodical Guidelines for Studying Antidepressant Activity of Pharmaceuticals,//Guidebook for Experimental (Preclinical) Studies of New Pharmaceuticals of the RF Ministry of Public Health.—ZAO IIA “Remedium”.—2000.—p. 121-125). The studies have been conducted on white outbred male rats having the weight of 230-250 grams. The animals have been put into a water reservoir having 40 cm in diameter and the depth of 60 cm, for the rats cannot either run out of the reservoir or find a support in it. The water temperature has been maintained at the level of 25° C., the experiments have been conducted within the period from 12 A.M. to 4 P.M. After coming into water the animals begin displaying energetic motion activity aimed at finding a way out of the aversive (troublesome) situation, but then they stop their attempts and take a typical position in the water, while being fully immovable or making insignificant motions necessary for keeping their heads over the water surface. The depressive condition intensity rate in this test is the duration of immobility. The immobility condition has been assessed visually, determining its duration within 10 minutes of the observations. Substances having antidepressant activity alleviate this condition by reducing the immobility time.
The studies have been conducted using animals divided into groups. The animals from the experimental groups have received single doses of phenotropyl in the amounts of 25, 50 and 100 mg/kg or the standard amitriptyline medication in the amount of 10 mg/kg (ampoule solution made by Spofa, the Czech Republic) in the volume corresponding to the dose. The animals from the control group have received distilled water in the same dosage. All the substances have been given intragastrically 40 minutes before the an experiment.

white outbred male mice = assay: haloperidol catalepsy method
Description: As one of the indicators for antidepressant antagonism in relation to depriming effects of neuroleptics, neuroleptic-induced catalepsy is used. The maintenance of catalepsy in animals is assessed by their ability to maintain set or unusual poses for a definite time (Morpurgo C. Effects of antiparkinson drugs on phenothiazine induced catatonia reaction//Arch. Int Pharmacodyn., 1962, vol. 137 No 1-2, p. 84-94). Reduction or prevention of catalepsy is one of the factors showing antidepressant activity in studied substances.
The studies have been conducted with white outbred male mice having the weight from 18 to 24 grams. Haloperidol is introduced intraperitoneally in a single dose of 0.5 mg/kg. Phenotropyl has been introduced intraperitoneally in doses of 50, 100 and 200 mg/kg in 15 minutes after the introduction of haloperidol. The catalepsy intensity has been assessed by time (in seconds) of keeping the animals in an uncomfortable pose where their front legs have been put onto a bar having the height of 4 cm, in 60, 120 and 180 minutes after introducing the said medications. It is shown in Table 4 that phenotropyl clearly antagonizes haloperidol-induced catalepsy.

white outbred male rats [2] = assay: involuntary swimming in a reservoir with freely moving wheels according to Nomura
Description: The method of involuntary swimming in a reservoir with freely moving wheels (Nomura S., Shimizu J., Kinjo M. et al. A new behavioral test for antidepressant drugs//Eur. J. Pharmacol.—1982.—v. 83.—N 34.—p. 171-175) is widely used for assessing the action of antidepressant agents. The installation is a reservoir having dimensions of 64×30×42 cm and divided into four equal sections where wheels are located. The reservoir is filled with water at the temperature of 25° C., coming to the medium line of the wheels. The studies have been conducted with white outbred male rats having the weight from 230 to 250 grams. The rats have been put into each section in the position where their heads are opposite to the wheels, and then the wheel speed has been recorded for 10 minutes with the use of electromechanical counters. The number of wheel revolutions made by the rat for 10 minutes is recorded.
This study has been conducted with animals from different groups. The rats from the experimental groups have received single doses of phenotropyl in the amounts of 25, 50 and 100 mg/kg or the standard amitriptyline medication in the amount of 10 mg/kg (ampoule solution made by Spofa, the Czech Republic) in the volume corresponding to the dosage. The animals from the control group have received distilled water in the same dosage. All the substances have been given intragastrically 40 minutes before the an experiment.

[3] = single dose 25 mg/kg intragastrically 40 minutes before
[4] = single dose 50 mg/kg intragastrically 40 minutes before

SMILES: NC(=O)CN1CC(c2ccccc2)CC1=O (centres unmarked) [Phenotropyl, N-carbamoyl-methyl-4-phenyl-2-pyrrolidone]
- reduction in the time of immobility as compared to the control group (white outbred male rats [1]; doses of 50 and 100 mg/kg): 1.6 times
- Time of immobility (white outbred male rats [1]; [3]): 275.5 ± 84.2 s
- Time of immobility (white outbred male rats [1]; [4]): 185.7 ± 49.5 s
- Time of immobility (white outbred male rats [1]; single dose 100 mg/kg intragastrically 40 minutes before): 158.4 ± 43.2 s
- antidepressant effect in behavioral despair test (white outbred male rats [1]; single doses of 50 and 100 mg/kg): pronounced antidepressant effect
- Catalepsy (white outbred male mice; haloperidol 0.5 mg/kg + phenotropyl 50 mg/kg intraperitoneally, 60 minutes): 0.0 ± 0.0 s
- Catalepsy (white outbred male mice; haloperidol 0.5 mg/kg + phenotropyl 50 mg/kg intraperitoneally, 120 minutes): 8.2 ± 3.2 s
- Catalepsy (white outbred male mice; haloperidol 0.5 mg/kg + phenotropyl 50 mg/kg intraperitoneally, 180 minutes): 4.5 ± 2.5 s
- Catalepsy (white outbred male mice; haloperidol 0.5 mg/kg + phenotropyl 100 mg/kg intraperitoneally, 60 minutes): 0.0 ± 0.0 s
- Catalepsy (white outbred male mice; haloperidol 0.5 mg/kg + phenotropyl 100 mg/kg intraperitoneally, 120 minutes): 2.0 ± 1.0 s
- Catalepsy (white outbred male mice; haloperidol 0.5 mg/kg + phenotropyl 100 mg/kg intraperitoneally, 180 minutes): 0.0 ± 0.0 s
- Catalepsy (white outbred male mice; haloperidol 0.5 mg/kg + phenotropyl 200 mg/kg intraperitoneally, 60 minutes): 0.0 ± 0.0 s
- Catalepsy (white outbred male mice; haloperidol 0.5 mg/kg + phenotropyl 200 mg/kg intraperitoneally, 120 minutes): 11.8 ± 2.1 s
- Catalepsy (white outbred male mice; haloperidol 0.5 mg/kg + phenotropyl 200 mg/kg intraperitoneally, 180 minutes): 0.0 ± 0.0 s
- reduction of catalepsy development level (white outbred male mice; phenotropyl 50 mg/kg, 120 minutes): 3.2 times
- reduction of catalepsy development level (white outbred male mice; phenotropyl 50 mg/kg, 180 minutes): 13.2 times
- reduction of catalepsy development level (white outbred male mice; phenotropyl 100 mg/kg, 120 minutes): 14 times
- development of catalepsy (white outbred male mice; phenotropyl dose of 100 or 200 mg/kg, 180 minutes): fully stopping its development
- development of catalepsy (white outbred male mice; phenotropyl doses of 50 and 100 mg/kg, 60 minutes): fully prevents the development of catalepsy
- Number of wheel revolutions for 10 minutes (white outbred male rats [2]; [3]): 89.3 ± 17.2
- Number of wheel revolutions for 10 minutes (white outbred male rats [2]; [4]): 102.7 ± 16.1
- Number of wheel revolutions for 10 minutes (white outbred male rats [2]; single dose 100 mg/kg intragastrically 40 minutes before, 100 mg/kg): 121.8 ± 23.7
- Number of wheel revolutions for 10 minutes (white outbred male rats [2]; single dose 100 mg/kg intragastrically 40 minutes before, listed as phenotropyl, 100 mg/kg): 121.8±23.7
